Test results taken from ChEMBL document CHEMBL4800729 (2021).

What was measured:
[1] = biological target: 5'-AMP-activated protein kinase catalytic subunit alpha-2 (Homo sapiens) (UniProt P54646); test: AMPKalpha2(h) Millipore kinase panel; conditions: Compound concentration 1.0 uM
[2] = biological target: Calcium/calmodulin-dependent protein kinase type 1G (Homo sapiens) (UniProt Q96NX5); test: CaMKIgamma(h) Millipore kinase panel; conditions: Compound concentration 1.0 uM
[3] = biological target: Calcium/calmodulin-dependent protein kinase type IV (Homo sapiens) (UniProt Q16566); test: CaMKIV(h) Millipore kinase panel; conditions: Compound concentration 1.0 uM
[4] = biological target: Serine/threonine-protein kinase Chk1 (Homo sapiens) (UniProt O14757); test: CHK1(h) Millipore kinase panel; conditions: Compound concentration 1.0 uM
[5] = biological target: Casein kinase II subunit alpha (Homo sapiens) (UniProt P68400); test: CK2(h) Millipore kinase panel; conditions: Compound concentration 1.0 uM
Casein kinase II subunit alpha (Homo sapiens), sequence (P68400 whole entry, looked up, the tested form may be a part): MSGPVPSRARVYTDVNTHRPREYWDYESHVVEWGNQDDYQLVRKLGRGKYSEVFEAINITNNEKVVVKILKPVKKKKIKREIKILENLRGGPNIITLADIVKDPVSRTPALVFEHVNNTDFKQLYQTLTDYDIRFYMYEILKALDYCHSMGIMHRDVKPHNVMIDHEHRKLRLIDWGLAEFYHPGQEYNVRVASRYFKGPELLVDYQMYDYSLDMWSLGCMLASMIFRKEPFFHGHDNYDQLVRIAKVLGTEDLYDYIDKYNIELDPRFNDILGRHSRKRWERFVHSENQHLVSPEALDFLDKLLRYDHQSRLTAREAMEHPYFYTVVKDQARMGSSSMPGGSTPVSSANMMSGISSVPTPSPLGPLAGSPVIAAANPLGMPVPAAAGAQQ

[6] = biological target: Epithelial discoidin domain-containing receptor 1 (Homo sapiens) (UniProt Q08345); test: DDR1(h) Millipore kinase panel; conditions: Compound concentration 1.0 uM
[7] = biological target: Ephrin type-A receptor 2 (Homo sapiens) (UniProt P29317); test: EphA2(h) Millipore kinase panel; conditions: Compound concentration 1.0 uM
[8] = biological target: Ephrin type-B receptor 3 (Homo sapiens) (UniProt P54753); test: EphB3(h) Millipore kinase panel; conditions: Compound concentration 1.0 uM
Ephrin type-B receptor 3 (Homo sapiens), sequence (P54753 whole entry): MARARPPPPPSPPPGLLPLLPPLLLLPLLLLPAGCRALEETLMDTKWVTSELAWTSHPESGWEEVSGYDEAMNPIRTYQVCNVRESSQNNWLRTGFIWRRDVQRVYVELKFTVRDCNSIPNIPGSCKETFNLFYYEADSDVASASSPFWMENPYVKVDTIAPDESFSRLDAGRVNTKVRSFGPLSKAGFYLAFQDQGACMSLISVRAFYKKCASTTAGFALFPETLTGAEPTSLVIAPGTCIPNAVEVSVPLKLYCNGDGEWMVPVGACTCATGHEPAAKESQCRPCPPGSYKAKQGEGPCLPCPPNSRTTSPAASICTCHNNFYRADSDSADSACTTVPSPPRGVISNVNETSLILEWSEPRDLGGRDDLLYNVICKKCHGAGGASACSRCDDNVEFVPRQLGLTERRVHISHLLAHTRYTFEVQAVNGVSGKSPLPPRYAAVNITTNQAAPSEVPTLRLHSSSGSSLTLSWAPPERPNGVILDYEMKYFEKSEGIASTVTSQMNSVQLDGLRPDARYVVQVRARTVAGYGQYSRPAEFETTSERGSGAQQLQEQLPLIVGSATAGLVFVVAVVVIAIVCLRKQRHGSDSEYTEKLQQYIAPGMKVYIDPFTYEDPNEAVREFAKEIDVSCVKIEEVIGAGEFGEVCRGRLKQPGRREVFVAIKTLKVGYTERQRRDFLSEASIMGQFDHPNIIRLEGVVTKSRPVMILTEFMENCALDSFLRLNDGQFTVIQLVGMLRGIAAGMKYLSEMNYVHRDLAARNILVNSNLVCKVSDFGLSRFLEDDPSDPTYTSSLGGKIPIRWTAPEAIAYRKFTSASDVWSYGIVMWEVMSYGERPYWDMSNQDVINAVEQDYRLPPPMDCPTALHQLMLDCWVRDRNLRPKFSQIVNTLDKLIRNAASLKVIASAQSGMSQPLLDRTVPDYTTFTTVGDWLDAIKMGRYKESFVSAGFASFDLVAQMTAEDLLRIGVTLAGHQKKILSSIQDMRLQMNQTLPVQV

[9] = biological target: Glycogen synthase kinase-3 alpha (Homo sapiens) (UniProt P49840); test: GSK3alpha(h Millipore kinase panel; conditions: Compound concentration 1.0 uM
[10] = biological target: Homeodomain-interacting protein kinase 2 (Homo sapiens) (UniProt Q9H2X6); test: HIPK2(h) Millipore kinase panel; conditions: Compound concentration 1.0 uM
Homeodomain-interacting protein kinase 2 (Homo sapiens), sequence (Q9H2X6 whole entry, looked up): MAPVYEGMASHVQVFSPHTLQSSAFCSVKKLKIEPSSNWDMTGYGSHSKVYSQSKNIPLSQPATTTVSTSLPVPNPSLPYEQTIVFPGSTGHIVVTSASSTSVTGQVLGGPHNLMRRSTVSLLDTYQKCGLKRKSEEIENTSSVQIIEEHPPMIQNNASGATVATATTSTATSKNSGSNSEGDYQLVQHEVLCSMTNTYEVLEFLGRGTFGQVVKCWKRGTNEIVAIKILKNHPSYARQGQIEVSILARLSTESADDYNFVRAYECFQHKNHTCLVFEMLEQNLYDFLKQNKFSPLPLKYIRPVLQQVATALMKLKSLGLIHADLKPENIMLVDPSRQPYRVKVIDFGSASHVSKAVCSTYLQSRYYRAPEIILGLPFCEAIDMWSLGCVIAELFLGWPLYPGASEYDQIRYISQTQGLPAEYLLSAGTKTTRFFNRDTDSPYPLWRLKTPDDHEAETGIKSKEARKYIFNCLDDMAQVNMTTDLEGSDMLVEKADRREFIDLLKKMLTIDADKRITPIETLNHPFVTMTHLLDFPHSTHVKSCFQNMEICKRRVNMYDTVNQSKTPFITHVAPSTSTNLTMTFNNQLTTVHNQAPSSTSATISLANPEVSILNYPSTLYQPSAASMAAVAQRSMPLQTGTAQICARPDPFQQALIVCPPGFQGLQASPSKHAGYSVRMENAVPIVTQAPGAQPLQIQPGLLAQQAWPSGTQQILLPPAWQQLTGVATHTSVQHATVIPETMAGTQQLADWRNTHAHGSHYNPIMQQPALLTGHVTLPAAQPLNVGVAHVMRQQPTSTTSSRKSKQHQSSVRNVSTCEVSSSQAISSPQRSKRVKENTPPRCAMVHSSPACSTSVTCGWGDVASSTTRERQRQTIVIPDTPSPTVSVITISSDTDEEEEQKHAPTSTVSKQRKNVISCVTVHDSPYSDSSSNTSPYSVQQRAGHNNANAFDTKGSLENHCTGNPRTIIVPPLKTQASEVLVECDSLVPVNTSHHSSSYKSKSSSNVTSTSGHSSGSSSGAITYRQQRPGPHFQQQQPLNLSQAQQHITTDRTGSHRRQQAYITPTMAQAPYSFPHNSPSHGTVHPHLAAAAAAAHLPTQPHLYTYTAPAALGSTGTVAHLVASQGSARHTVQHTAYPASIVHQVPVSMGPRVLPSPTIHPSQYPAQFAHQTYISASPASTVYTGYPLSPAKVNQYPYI

[11] = biological target: Interleukin-1 receptor-associated kinase 1 (Homo sapiens) (UniProt P51617); test: IRAK1(h) Millipore kinase panel; conditions: Compound concentration 1.0 uM
[12] = biological target: Interleukin-1 receptor-associated kinase 4 (Homo sapiens) (UniProt Q9NWZ3); test: IRAK4(h) Millipore kinase panel; conditions: Compound concentration 1.0 uM
[13] = biological target: Mitogen-activated protein kinase 8 (Homo sapiens) (UniProt P45983); test: JNK1alpha1(h) Millipore kinase panel; conditions: Compound concentration 1.0 uM
[14] = biological target: Tyrosine-protein kinase Lck (Homo sapiens) (UniProt P06239); test: Lck(h) activated Millipore kinase panel; conditions: Compound concentration 1.0 uM
[15] = biological target: Serine/threonine-protein kinase 10 (Homo sapiens) (UniProt O94804); test: LOK(h) Millipore kinase panel; conditions: Compound concentration 1.0 uM
[16] = biological target: Serine/threonine-protein kinase MAK (Homo sapiens) (UniProt P20794); test: MAK(h) Millipore kinase panel; conditions: Compound concentration 1.0 uM
[17] = biological target: MAP/microtubule affinity-regulating kinase 4 (Homo sapiens) (UniProt Q96L34); test: MARK4(h) Millipore kinase panel; conditions: Compound concentration 1.0 uM
[18] = biological target: Mitogen-activated protein kinase kinase kinase 3 (Homo sapiens) (UniProt Q99759); test: MEKK3(h) Millipore kinase panel; conditions: Compound concentration 1.0 uM
[19] = biological target: mTOR/FKBP12A/FKBP12B (Homo sapiens) (UniProt P62942+P68106+P42345); test: mTOR FKBP12(h) Millipore kinase panel; format: protein-complex assay; conditions: Compound concentration 1.0 uM
[20] = biological target: Serine/threonine-protein kinase mTOR (Homo sapiens) (UniProt P42345); test: mTOR(h) Millipore kinase panel; conditions: Compound concentration 1.0 uM
[21] = biological target: Myosin light chain kinase 2, skeletal/cardiac muscle (Homo sapiens) (UniProt Q9H1R3); test: MYLK2(h) Millipore kinase panel; conditions: Compound concentration 1.0 uM
[22] = biological target: Serine/threonine-protein kinase PAK 6 (Homo sapiens) (UniProt Q9NQU5); test: PAK6(h) Millipore kinase panel; conditions: Compound concentration 1.0 uM
[23] = biological target: Phosphorylase b kinase gamma catalytic chain, skeletal muscle/heart isoform (Homo sapiens) (UniProt Q16816); test: PhKgamma1(h) Millipore kinase panel; conditions: Compound concentration 1.0 uM
[24] = biological target: Phosphatidylinositol 4-phosphate 5-kinase type-1 gamma (Homo sapiens) (UniProt O60331); test: PIP5K1g(h) Millipore kinase panel; conditions: Compound concentration 1.0 uM
[25] = biological target: Protein kinase C epsilon type (Homo sapiens) (UniProt Q02156); test: PKCepsilon(h) Millipore kinase panel; conditions: Compound concentration 1.0 uM
[26] = biological target: Protein kinase C eta type (Homo sapiens) (UniProt P24723); test: PKCeta(h) Millipore kinase panel; conditions: Compound concentration 1.0 uM
Protein kinase C eta type (Homo sapiens), sequence (P24723 whole entry): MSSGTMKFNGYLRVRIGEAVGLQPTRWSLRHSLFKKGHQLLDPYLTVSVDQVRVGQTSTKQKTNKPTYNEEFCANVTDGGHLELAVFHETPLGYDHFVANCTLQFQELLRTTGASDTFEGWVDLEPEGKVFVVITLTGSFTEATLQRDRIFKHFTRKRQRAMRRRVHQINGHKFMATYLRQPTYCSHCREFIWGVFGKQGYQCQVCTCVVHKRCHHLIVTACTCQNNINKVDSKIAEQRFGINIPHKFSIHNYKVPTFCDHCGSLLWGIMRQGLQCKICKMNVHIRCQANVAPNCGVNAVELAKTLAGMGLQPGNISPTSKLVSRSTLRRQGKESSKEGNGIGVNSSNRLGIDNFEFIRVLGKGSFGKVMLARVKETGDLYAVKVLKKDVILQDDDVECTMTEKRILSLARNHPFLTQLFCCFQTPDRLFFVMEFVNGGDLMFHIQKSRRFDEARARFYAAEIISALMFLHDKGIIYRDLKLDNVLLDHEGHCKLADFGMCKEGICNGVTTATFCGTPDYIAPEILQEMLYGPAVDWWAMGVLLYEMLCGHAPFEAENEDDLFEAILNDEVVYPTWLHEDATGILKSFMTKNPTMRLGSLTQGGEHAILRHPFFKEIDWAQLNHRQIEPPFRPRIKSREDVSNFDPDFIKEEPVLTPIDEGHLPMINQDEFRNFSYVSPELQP

[27] = biological target: Macrophage-stimulating protein receptor (Homo sapiens) (UniProt Q04912); test: Ron(h) Millipore kinase panel; conditions: Compound concentration 1.0 uM
[28] = biological target: Ribosomal protein S6 kinase alpha-6 (Homo sapiens) (UniProt Q9UK32); test: Rsk4(h) Millipore kinase panel; conditions: Compound concentration 1.0 uM
[29] = biological target: Serine/threonine-protein kinase SIK3 (Homo sapiens) (UniProt Q9Y2K2); test: SIK3(h) Millipore kinase panel; conditions: Compound concentration 1.0 uM
[30] = biological target: Serine/threonine-protein kinase 32C (Homo sapiens) (UniProt Q86UX6); test: STK32C(h) Millipore kinase panel; conditions: Compound concentration 1.0 uM
[31] = biological target: Tyrosine-protein kinase SYK (Homo sapiens) (UniProt P43405); test: Syk(h) Millipore kinase panel; conditions: Compound concentration 1.0 uM
[32] = biological target: Serine/threonine-protein kinase TAO2 (Homo sapiens) (UniProt Q9UL54); test: TAO2(h) Millipore kinase panel; conditions: Compound concentration 1.0 uM
Serine/threonine-protein kinase TAO2 (Homo sapiens), sequence (Q9UL54 whole entry): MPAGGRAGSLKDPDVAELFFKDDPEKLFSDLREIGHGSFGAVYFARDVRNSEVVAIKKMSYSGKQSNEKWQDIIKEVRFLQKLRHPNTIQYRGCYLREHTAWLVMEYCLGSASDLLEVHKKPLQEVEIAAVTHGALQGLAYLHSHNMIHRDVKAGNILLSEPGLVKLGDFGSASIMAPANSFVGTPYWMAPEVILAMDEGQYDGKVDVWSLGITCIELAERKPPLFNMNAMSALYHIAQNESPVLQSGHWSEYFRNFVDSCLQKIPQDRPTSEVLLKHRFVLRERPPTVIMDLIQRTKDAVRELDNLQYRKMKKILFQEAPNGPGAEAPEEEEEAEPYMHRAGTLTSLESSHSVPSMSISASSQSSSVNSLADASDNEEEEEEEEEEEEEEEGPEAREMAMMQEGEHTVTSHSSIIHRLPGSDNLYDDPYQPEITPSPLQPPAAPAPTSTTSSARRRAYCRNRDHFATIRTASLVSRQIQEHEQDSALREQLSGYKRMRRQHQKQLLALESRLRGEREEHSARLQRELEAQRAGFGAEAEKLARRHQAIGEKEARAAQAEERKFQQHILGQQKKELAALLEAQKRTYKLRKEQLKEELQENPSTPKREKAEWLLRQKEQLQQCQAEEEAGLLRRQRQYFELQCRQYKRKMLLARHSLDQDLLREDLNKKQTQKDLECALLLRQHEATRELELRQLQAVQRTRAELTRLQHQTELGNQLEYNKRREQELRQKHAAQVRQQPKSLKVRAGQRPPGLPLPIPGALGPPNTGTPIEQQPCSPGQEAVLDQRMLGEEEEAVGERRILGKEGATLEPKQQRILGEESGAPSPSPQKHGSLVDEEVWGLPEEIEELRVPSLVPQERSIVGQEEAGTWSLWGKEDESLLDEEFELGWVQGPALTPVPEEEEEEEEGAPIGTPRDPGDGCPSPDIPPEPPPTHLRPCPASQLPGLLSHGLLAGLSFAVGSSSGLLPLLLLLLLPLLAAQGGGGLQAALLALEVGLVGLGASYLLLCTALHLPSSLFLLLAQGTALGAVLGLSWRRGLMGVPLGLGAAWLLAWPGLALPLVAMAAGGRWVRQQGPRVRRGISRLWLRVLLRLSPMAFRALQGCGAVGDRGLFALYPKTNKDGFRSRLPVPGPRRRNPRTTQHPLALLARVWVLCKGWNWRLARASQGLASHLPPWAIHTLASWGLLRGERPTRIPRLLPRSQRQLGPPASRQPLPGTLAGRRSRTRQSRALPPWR

[33] = biological target: Serine/threonine-protein kinase ULK1 (Homo sapiens) (UniProt O75385); test: ULK1(h) Millipore kinase panel; conditions: Compound concentration 1.0 uM
[34] = biological target: Serine/threonine-protein kinase WNK2 (Homo sapiens) (UniProt Q9Y3S1); test: WNK2(h) Millipore kinase panel; conditions: Compound concentration 1.0 uM
[35] = biological target: Prostaglandin G/H synthase 1 (Homo sapiens) (UniProt P23219); test: Cyclooxygenase COX-1 Eurofins-Panlabs enzyme assay; design: substrate with concentration; conditions: Compound concentration 10.0 uM
[36] = biological target: 5-hydroxytryptamine receptor 1E (Homo sapiens) (UniProt P28566); conditions: Compound concentration 10.0 uM
[37] = biological target: D(2) dopamine receptor (Homo sapiens) (UniProt P14416); conditions: Compound concentration 10.0 uM
[38] = biological target: Mu-type opioid receptor (Homo sapiens) (UniProt P35372); conditions: Compound concentration 10.0 uM
[39] = biological target: Histamine H1 receptor (Homo sapiens) (UniProt P35367); conditions: Compound concentration 10.0 uM
[40] = biological target: T1, Muscarinic acetylcholine receptor M1 (Homo sapiens) (UniProt P11229); conditions: Compound concentration 10.0 uM
T1 sequence (whole entry): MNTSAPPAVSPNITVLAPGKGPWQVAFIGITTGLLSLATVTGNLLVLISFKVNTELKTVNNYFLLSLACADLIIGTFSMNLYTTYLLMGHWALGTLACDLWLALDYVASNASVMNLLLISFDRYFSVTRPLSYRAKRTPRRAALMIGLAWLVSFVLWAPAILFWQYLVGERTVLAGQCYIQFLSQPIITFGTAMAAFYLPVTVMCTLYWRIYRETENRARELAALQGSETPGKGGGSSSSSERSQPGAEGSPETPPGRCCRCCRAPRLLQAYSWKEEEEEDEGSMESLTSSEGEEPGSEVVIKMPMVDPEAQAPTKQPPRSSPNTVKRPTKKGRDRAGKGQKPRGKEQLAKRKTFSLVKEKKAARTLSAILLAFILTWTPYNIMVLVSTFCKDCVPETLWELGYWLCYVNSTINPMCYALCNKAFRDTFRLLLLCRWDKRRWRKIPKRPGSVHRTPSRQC

[41] = biological target: Muscarinic acetylcholine receptor M5 (Homo sapiens) (UniProt P08912); conditions: Compound concentration 10.0 uM
[42] = biological target: Kappa-type opioid receptor (Homo sapiens) (UniProt P41145); conditions: Compound concentration 10.0 uM
Kappa-type opioid receptor (Homo sapiens), sequence (P41145 whole entry): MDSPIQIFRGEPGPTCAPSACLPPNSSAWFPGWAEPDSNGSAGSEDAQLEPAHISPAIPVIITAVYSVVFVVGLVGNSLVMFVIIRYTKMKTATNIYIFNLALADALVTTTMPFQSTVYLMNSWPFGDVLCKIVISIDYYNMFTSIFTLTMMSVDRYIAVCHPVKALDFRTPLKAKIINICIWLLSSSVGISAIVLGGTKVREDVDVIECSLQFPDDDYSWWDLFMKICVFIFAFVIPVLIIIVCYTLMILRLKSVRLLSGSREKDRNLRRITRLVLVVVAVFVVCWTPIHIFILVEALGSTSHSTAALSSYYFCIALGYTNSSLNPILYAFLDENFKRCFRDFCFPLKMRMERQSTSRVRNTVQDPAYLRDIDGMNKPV

[43] = biological target: 5-hydroxytryptamine receptor 2B (Homo sapiens, UniProt P41595); conditions: Compound concentration 10.0 uM

Measured: inhibition

CC[C@@H](Nc1c(C#N)c(-c2ccc(-c3cccc(C)c3F)cc2)nc2cnccc12)C(=O)O [BAY-091]
active: [43] 98%
inactive: [1] -5.39% | [2] 14.4% | [3] 7.26% | [4] 4.56% | [5] 4.66% | [6] 11.7% | [7] -0.55% | [8] -5.61% | [9] 5.47% | [10] 0.19% | [11] -3.31% | [12] 6.22% | [13] 4.24% | [14] -3.67% | [15] 8.13% | [16] 9.23% | [17] 5.8% | [18] -3.58% | [19] 1.38% | [20] 14.8% | [21] 7.84% | [22] -5.79% | [23] -9.06% | [24] 1.51% | [25] -4.26% | [26] 3.77% | [27] 0.76% | [28] -6.19% | [29] 5.14% | [30] 5.49% | [31] 10.4% | [32] 10.3% | [33] 14.2% | [34] 3.31% | [35] 19% | [36] 17.2% | [37] 13.8% | [38] 1.43% | [39] 12.3% | [40] -5.6% | [41] -4.26% | [42] -2%
